What all share (assay type): cell-based
The target in assay [1] is T1, KRAS G12D protein in AsPc-1 cells (Homo sapiens, UniProt P01116, G12D).
T1 construct: endogenous in cells; host or cells: AsPc-1
The assay is described as follows: KRAS degradation assay (Western Blot) in AsPc-1 cells. As to conditions: for DC50: 24 h; for Dmax: ASPC1, 24 h. In a few lines: (§1)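 DC50 and Dmax were fitted from KRAS band intensity, corrected to β-actin and expressed against untreated control, after Western blotting of 5 μg lysate protein. Cells were exposed for 24 h at 37 °C to 0.03-3000 nM compound (final) with 0.25% DMSO.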

In assay [2] the target is T2, KRAS G12V protein in SW900 cells (Homo sapiens, UniProt P01116, G12V).
T2 construct: endogenous in cells; host or cells: SW900
Briefly: KRAS degradation assay (Western Blot) in SW900 cells. The settings on record: 24 h. The method, boiled down: as §1
A general note: In western blotting, separated proteins are transferred to a membrane and probed.

The target in assay [3] is T3, KRAS G13D protein in DLD-1 cells (Homo sapiens, UniProt P01116, G13D).
T3 construct: endogenous in cells; host or cells: DLD-1
Briefly: KRAS degradation assay (Western Blot) in DLD-1 cells. The settings on record: 24 h. The method, boiled down: as §1

Assay [4] concerns KRAS G12C mutant human non-small cell lung cancer cell NCI-H358. Briefly: 3D cell proliferation inhibition assay, NCI-H358. The settings on record: NCI-H358, 168 h, 3D culture, 7 days, CTG. The method, boiled down:
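Cells seeded in low-adsorption plates at 5×10^2 cells/well (MKN1 1×10^3) with compounds at final 10000–0.026 nM, 0.2% DMSO, 3D culture 7 days at 37 °C. Viability by CellTiter-Glo luminescence; inhibition normalised to DMSO and medium-only controls, IC50 from nonlinear log-concentration fit.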

In assay [5] the target is T4, KRAS G12D protein in A427 cells (Homo sapiens, UniProt P01116, G12D).
T4 construct: endogenous in cells; host or cells: A427
The assay is described as follows: KRAS degradation assay (Western Blot) in A427 cells. The settings on record: for DC50: 24 h; for Dmax: A-427, 24 h. The source says:
Test Example 5: KRAS G12C, KRAS G12D, KRAS G12V, KRAS G13D, and KRAS WT (Expanded) Degradation Assays
The degradation effect of the compounds on KRAS was investigated on KRAS G12C mutant human non-small cell lung cancer cell NCI-H358, KRAS G12D mutant human metastatic pancreatic cancer cell AsPc-1, KRAS G12D mutant human lung cancer cell A427, KRAS G12V mutant human colorectal cancer cell SW620, KRAS G12V mutant human lung cancer cell SW900, KRAS G13D mutant human colorectal cancer epithelial cell DLD-1, and KRAS WT human gastric cancer cell MKN-1. The specific procedures were as follows: 0.95 mL of cells were seeded into each well of a 24-well cell culture plate to achieve a cell density of 5×10^5 cells/well; and the cell plate was incubated in an incubator at 37° C. with 5% CO2 overnight. Then 50 μL of the compound solution after dilution was added to each of the wells with the corresponding cells, so that the final concentration of the compound was in a range of 0.03-3000 nM. The final concentration of DMSO was 0.25%. After the compounds were added, the cell plate was incubated in an incubator at 37° C. with 5% CO2 for 24 h. The culture medium in the 24-well cell culture plate was then removed, and the plate was washed twice with 1×PBS (KeyGEN). 120 μL of RIPA (strong) lysis buffer (Beyotime) (supplemented with 1 mM phenylmethylsulfonyl fluoride, a protease inhibitor mixture (Beyotime), and a protease phosphatase inhibitor mixture (Beyotime)) was added to lyse adherent SW900 cells at the bottom of the cell culture plate. After the plate was left to stand on ice for 30 min, the protein lysate in each well was transferred to a 1.5 mL centrifuge tube and centrifuged at 15000 g for 20 min at 4° C. The cell lysate supernatants after centrifugation were cryopreserved in a refrigerator at −80° C. for later use.
After the samples of the cell lysate supernatants that had been prepared were thawed from the refrigerator at −80° C., the total protein concentrations of the cell lysates were determined using a BCA protein quantification kit (Tiangen). The total protein concentrations of the samples were then adjusted to 0.5 μg/μL with PBS and 5×SDS-PAGE protein loading buffer (Beyotime), and the samples were incubated in a water bath at 100° C. for 15 min. The samples were then incubated in an ice bath for 5 min and centrifuged at 14000 g for 1 min at 4° C., and the supernatants were mixed well as loading samples for the Western Blot assay. The samples were loaded into wells of a 10% precast gel (KeyGEN) with a loading volume of 10 μL (total protein: 5 μg), a sufficient Tris-MOPS-SDS running buffer (Adamas) was added, and then electrophoresis was performed at a constant voltage of 120 V for 55 min. After the electrophoresis, the proteins on the gel were transferred to PVDF membranes at a constant current of 250 mA for 55 min. After the membrane transfer, the PVDF membranes were incubated in 1× Quick Block blocking buffer (Beyotime)at room temperature for 30 min. After the blocking, the PVDF membranes were separately incubated at 4° C. overnight with the KRAS antibody (Abcam) diluted in a ratio of 1:1000 and the β-actin antibody (Abcam) diluted in a ratio of 1:2000 in 5% BSA as the diluent, and then washed with 1×TBST buffer (2.4 g of Tris, 8.8 g of NaCl, 1.5 mL of Tween 20, with pH adjusted to 7.4, with the volume brought to 1 L) 3 times for 10 min/time. The membranes were incubated with a secondary antibody (Abcam) diluted in 5% BSA at room temperature for 2 h, and then washed with 1×TBST buffer 3 times for 10 min/time. Finally, the membranes were incubated with Clarity Western ECL Substrate (BIO-RAD) for 5 min for luminescence and color development, and a ChemiScope 6200 Touch chemiluminescence imaging system (Clinx) was used for color development and protein mapping. Gray value analysis of the protein maps was performed using the chemiluminescence analysis software (Clinx). […]

T3 sequence (P01116 1-188 isoform P01116-2 G13D): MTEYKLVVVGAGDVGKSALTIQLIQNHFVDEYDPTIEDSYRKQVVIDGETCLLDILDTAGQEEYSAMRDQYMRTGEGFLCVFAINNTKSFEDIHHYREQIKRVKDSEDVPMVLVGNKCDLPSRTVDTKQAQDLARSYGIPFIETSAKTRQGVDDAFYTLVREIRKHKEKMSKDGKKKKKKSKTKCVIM
T2 sequence (P01116 1-188 isoform P01116-2 G12V): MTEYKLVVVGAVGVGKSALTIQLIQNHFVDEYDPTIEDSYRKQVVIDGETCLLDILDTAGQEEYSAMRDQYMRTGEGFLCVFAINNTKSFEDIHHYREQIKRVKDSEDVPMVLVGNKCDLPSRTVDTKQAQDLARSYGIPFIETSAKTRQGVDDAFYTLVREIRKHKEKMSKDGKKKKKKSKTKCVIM
T1 sequence (P01116 1-188 isoform P01116-2 G12D): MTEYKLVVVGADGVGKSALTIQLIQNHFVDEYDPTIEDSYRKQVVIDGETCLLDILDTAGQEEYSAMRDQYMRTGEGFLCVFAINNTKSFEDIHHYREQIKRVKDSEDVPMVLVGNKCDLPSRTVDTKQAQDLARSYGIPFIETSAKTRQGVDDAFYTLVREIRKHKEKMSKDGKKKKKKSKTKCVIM
T4 sequence (P01116 1-188 isoform P01116-2 G12D): as above

On to `C#Cc1c(F)ccc2cc(O)cc(-c3ncc4c(N5CCC[C@@](C)(O)C5)nc(OCC5(CN6CCN(CC7CCC8(CC7)CCN(C(=O)c7ccc(OC)c(N9CCC(=O)NC9=O)c7)CC8)CC6)CC5)nc4c3F)c12` [Example 7, (R)-1-(5-(9-((4-((1-(((7-(8-ethynyl-7-fluoro-3-hydroxynaphthalen-1-yl)-8-fluoro-4-(3-hydroxy-3-methylpiperidin-1-yl)pyrido[4,3-d]pyrimidin-2-yl)oxy)methyl)cyclopropyl)methyl)piperazin-1-yl)methyl)-3-azaspiro[5.5]undecane-3-carbonyl)-2-methoxyphenyl)dihydropyrimidine-2,4(1H,3H)-dione], for which the 50% degradation concentration (DC50) in assay [1], in assay [2], in assay [3] and in assay [5] was at most 50 nM in each case. For the same molecule, the Dmax in assay [1], in assay [2], in assay [3] and in assay [5] was 80 to 100% in each case. Also, the IC50 (commonly the midpoint of a concentration-inhibition curve) in assay [4] is at most 50 nM.

Take `CCc1c(F)ccc2cc(O)cc(-c3ncc4c(N5CCC[C@@](C)(O)C5)nc(OCC5(CN6CCN(CC7CCC8(CC7)CCN(C(=O)c7ccc(Cl)c(N9CCC(=O)NC9=O)c7)CC8)CC6)CC5)nc4c3F)c12` [Example 2, (R)-1-(2-chloro-5-(9-((4-((1-(((7-(8-ethyl-7-fluoro-3-hydroxynaphthalen-1-yl)-8-fluoro-4-(3-hydroxy-3-methylpiperidin-1-yl)pyrido[4,3-d]pyrimidin-2-yl)oxy)methyl)cyclopropyl)methyl)piperazin-1-yl)methyl)-3-azaspiro[5.5]undecane-3-carbonyl)phenyl)dihydropyrimidine-2,4(1H,3H)-dione]: in assay [2], the half-maximal degradation concentration (DC50) (in general, the midpoint of the concentration-degradation curve) is at most 50 nM and the Dmax (commonly the largest share of the target that was removed) fell in the range of 80 to 100%. In assay [4], this molecule returned an IC50 of at most 50 nM.

Regarding `C#Cc1c(F)ccc2cc(O)cc(-c3ncc4c(N5CCC[C@@](C)(O)C5)nc(OCC5(CN6CCN(CC7CCC8(CC7)CCN(C(=O)c7ccc(C)c(N9CCC(=O)NC9=O)c7)CC8)CC6)CC5)nc4c3F)c12` [Example 6, (R)-1-(5-(9-((4-((1-(((7-(8-ethynyl-7-fluoro-3-hydroxynaphthalen-1-yl)-8-fluoro-4-(3-hydroxy-3-methylpiperidin-1-yl)pyrido[4,3-d]pyrimidin-2-yl)oxy)methyl)cyclopropyl)methyl)piperazin-1-yl)methyl)-3-azaspiro[5.5]undecane-3-carbonyl)-2-methylphenyl)dihydropyrimidine-2,4(1H,3H)-dione], the DC50 in assay [1], in assay [2], in assay [3] and in assay [5] was at most 50 nM throughout. Moreover, the greatest degradation seen (Dmax) in assay [1], in assay [2], in assay [3] and in assay [5] was 80 to 100% in each case. In addition, the IC50 in assay [4] is at most 50 nM.

For `C#Cc1c(F)ccc2cc(O)cc(-c3ncc4c(N5CCC[C@@](C)(O)C5)nc(OCC5(CN6CCN(CC7CCC8(CC7)CCN(C(=O)c7ccc(Cl)c(N9CCC(=O)NC9=O)c7)CC8)CC6)CC5)nc4c3F)c12` [Example 1, (R)-1-(2-chloro-5-(9-((4-((1-(((7-(8-ethynyl-7-fluoro-3-hydroxynaphthalen-1-yl)-8-fluoro-4-(3-hydroxy-3-methylpiperidin-1-yl)pyrido[4,3-d]pyrimidin-2-yl)oxy)methyl)cyclopropyl)methyl)piperazin-1-yl)methyl)-3-azaspiro[5.5]undecane-3-carbonyl)phenyl)dihydropyrimidine-2,4(1H,3H)-dione], the DC50 in assay [1], in assay [2], in assay [3] and in assay [5] was at most 50 nM in each case. Moreover, the Dmax in assay [1], in assay [2], in assay [3] and in assay [5] was 80 to 100% each time. Further, in assay [4], the IC50 is at most 50 nM.

In the case of `C#Cc1cccc2cc(O)cc(-c3ncc4c(N5CCC[C@@](C)(O)C5)nc(OCC5(CN6CCN(CC7CCC8(CC7)CCN(C(=O)c7ccc(Cl)c(N9CCC(=O)NC9=O)c7)CC8)CC6)CC5)nc4c3F)c12` [Example 11, (R)-1-(2-chloro-5-(9-((4-((1-(((7-(8-ethynyl-3-hydroxynaphthalen-1-yl)-8-fluoro-4-(3-hydroxy-3-methylpiperidin-1-yl)pyrido[4,3-d]pyrimidin-2-yl)oxy)methyl)cyclopropyl)methyl)piperazin-1-yl)methyl)-3-azaspiro[5.5]undecane-3-carbonyl)phenyl)dihydropyrimidine-2,4(1H,3H)-dione], in assay [2], the DC50 is at most 50 nM and the Dmax was in the range of 80 to 100%. For the same molecule, in assay [4], the IC50 was at most 50 nM.

As for `CCc1cccc2cc(O)cc(-c3ncc4c(N5CCC[C@@](C)(O)C5)nc(OCC5(CN6CCN(CC7CCC8(CC7)CCN(C(=O)c7ccc(Cl)c(N9CCC(=O)NC9=O)c7)CC8)CC6)CC5)nc4c3F)c12` [Example 3, (R)-1-(2-chloro-5-(9-((4-((1-(((7-(8-ethyl-3-hydroxynaphthalen-1-yl)-8-fluoro-4-(3-hydroxy-3-methylpiperidin-1-yl)pyrido[4,3-d]pyrimidin-2-yl)oxy)methyl)cyclopropyl)methyl)piperazin-1-yl)methyl)-3-azaspiro[5.5]undecane-3-carbonyl)phenyl)dihydropyrimidine-2,4(1H,3H)-dione], the DC50 in assay [1], in assay [2], in assay [3] and in assay [5] was at most 50 nM throughout. Besides, the Dmax in assay [1], in assay [2], in assay [3] and in assay [5] was 80 to 100% in each case. This molecule also gave a half-inhibitory concentration (IC50) in assay [4] of at most 50 nM.

These data come from patent US20260167622A1, “PAN-KRAS DEGRADING AGENT, AND PREPARATION METHOD THEREFOR AND USE THEREOF” (LEADINGTAC PHARMACEUTICAL (SHAOXING) CO., LTD., priority 2022, published 2026).
